What all share (assay type): cell-based, human
For data set [1], the system named is CWR-R1 cells. Briefly: Drug sensitivity (WST-1) of CWR-R1 cells infected with lenti-virus encoding Pim-1 SiRNA. The following applies: mitoxantrone (2 μM), topotecan (5 μM) or docetaxel (50 nM), 2 days. As to the method:
FIG. 12A: CWR-R1 cells infected with lenti-virus encoding vector control and Pim-1 SiRNA were treated with MX (2 μM), TPT (5 μM) or DTX (50 nM), respectively for 2 days. Cell viability was determined using the WST-1 assay. FIG. 12B: immunoprecipitation performed by using anti-BCRP.
(§1) The phosphorylation of BCRP is therapeutically significant because it […] BCRP from causing resistance to chemotherapeutic agents. […] Downregulating Pim-1L expression by a specific siRNA also sensitized the prostate cancer cell line CWR-R1 to apoptosis induced by the chemotherapeutic agents mitoxantrone, topotecan and docetaxel (FIG. 12). The siRNA target sequence for inhibiting Pim-1L expression used to inhibit Pim-1L expression is sequence is: 5′ GCAGGACAGUGCUUGAUAC 3′ identified as SEQ ID NO. 3, as is described in a previous study (29, the entire contents of which is hereby incorporated by reference as if fully set forth herein). This siRNA is targeted at nucleotides 1540-1558 of SEQ ID NO. 1.
For orientation: Formazan colour is commonly taken as a measure of viable cells.

Data set [2] deals with MCF7-MX cells. Briefly: Drug sensitivity (WST-1) of MCF7-MX cells infected with lenti-virus encoding Pim-1 SiRNA. The settings on record: Flavopiridol (15 μM) or DTX (50 μM), 2 days. As to the method:
FIG. 11A: MCF7-MX cells infected with lenti-virus encoding vector control and Pim-1 SiRNA were treated with Flavopiridol (15 μM) or DTX (50 μM) as indicated for 2 days. Cell viability was determined using the WST-1 assay. P<0.05 FIG. 11B: expression levels of Pim-1, BCRP and actin analyzed by immunoblotting with the respective antibodies.
as §1

Data set [3] deals with LNCaP cells over-expressing BCRP. Briefly: Drug sensitivity (WST-1) of LNCaP cells over-expressing BCRP infected with lenti-virus encoding Pim-1 SiRNA. The following applies: MX (0.5 μM) or TPT (0.1 μM), 2 days. As to the method: FIG. 13A: LNCaP cells infected with lenti-virus encoding vector control, BCRP, Pim-1SiRNA or both were treated with the indicated drugs MX (0.5 μM) or TPT (0.1 μM) for 2 days. Cell viability was determined using the WST-1 assay FIG. 13B: Immunoprecipitation was performed by using anti-BCRP.

Data set [4] has as its system Pim-1L. Briefly: Threonine phosphorylation of endogenous BCRP after Pim-1 siRNA (immunoprecipitation with anti-BCRP, immunoblotting with anti-phosphothreonine). The settings on record: MCF7/MX cells; lenti-virus encoded siRNA vs vector control.
Description: MCF7-MX cell lysates infected with lenti-virus encoding Vector control and Pim-1 SiRNA(SiPim-1) were subjected to immunoprecipitation with monoclonal BCRP antibody, followed by immunoblotting with anti-phosphothreonine (αpThr).
as §1
The transfected cells were lysed in the buffer (20 mM TrisHCl pH 7.4, 150 mM NaCl, 1 mM EDTA, 1 mM EGTA, 1% Triton X-100, 1 mM Na3VO4, 1 mg/ml aprotinin, 1 mg/ml leupterin and 1 mM PMSF). Insoluble material was removed by centrifugation, and antibodies were added to lysates and incubated for 1-3 hour at 4° C. […]

Data set [5] concerns LNCaP cells. In words: Drug sensitivity assay (WST-1 cell viability) of lenti-virus infected LNCaP cells treated with doxorubicin. The following applies: for viability at 0.1 µg/mL: Homo sapiens, LNCaP, read-out: cells remained viable. How it is done: FIG. 5A: LNCaP cells infected with lenti-virus encoding Flag-Pim-1S, Pim-1L, Pim-1LKM (kinase-deficient mutant) or vector control were treated with doxorubicin (0.1 ug/ml) for the times as indicated. Cell viability was determined by the WST-1 assay. The data were expressed as the mean of triplicates of the doxorubicin-treated samples relative to the untreated controls. * p<0.01 compared with the vector control. The expression of the Pim-1 proteins encoded by the lenti-viruses was determined by immunoblotting with anti-Flag antibody. […] The response to doxorubicin was determined at 20 hour as above. * p<0.01 compared with the vector control; ** p<0.01 compared with Pim-1L alone. Expression of Flag-Pim-1L and T7-EtkKQ was monitored by immunoblotting with anti-Flag and anti-T7 antibody, respectively. FIG. 5C: LNCaP cells infected with the lenti-viruses encoding the indicated proteins as in 5A were treated with 10-100 nM mitoxantrone for 48 h; cell viability was determined as in 5A. * p<0.01 compared with the vector control. FIG. 5D: Etk mediates Pim-1L-induced resistance to mitoxantrone. LNCaP cell were infected with the lenti-viruses and the mitoxatrone response was determined. * p<0.01 compared with the vector control; ** p<0.01 compared with Pim-1L alone. […] LNCaP cells were transfected with the plasmids as indicated. The association of Etk with p53 was determined by immunoprecipitation with anti-p53 and followed by immunoblotting with anti-T7 antibody. The expression of p53, Etk or Pim-1 in these cells was monitored by immunoblotting with anti-p53, anti-T7 and anti-Flag antibody, respectively.
An increase of Etk activity confers drug resistance to apoptosis caused by chemotherapeutic agents in LNCaP cells (20), including doxorubicin and cisplatin. By contrast, P53 binding to Etk decreases Etk activity permits apoptosis. However, the mechanism by which Etk is activated was not known. […] As is shown in FIG. 5A, treatment of LNCaP cells with doxorubicin induced rapid apoptosis as was expected. […] Over-expression of Pim-1S conferred some initial protection against drug-induced apoptosis with about 80% cell survival at 20 h. However, such protection was not sustained until 40 hours. […] In this experiment, LNCaP cells were infected with Lenti-virus encoding Flag-Pim-1 S, Pim-1L, Pim-1LKM (kinase-deficient mutant) or vector control for 24h.
LNCaP cells were infected with the lentiviruses encoding the proteins as indicated by using the protocol described previously (19). At 48 hour post-infection, the cells were seeded into the 96 well plates (3×10^4/well). Doxorubicin or mitoxantrone was added in the medium after 24 h. The effects of doxorubicin on the viability of cells were measured after 20-48 hour by the WST-1 assay (Roche Molecular Biochemicals). The viability rates are expressed as means±SD of the triplicate for each experiment. An aliquot of cells was lysed and followed by immunoblotting with anti-T7 or anti-Flag to monitor the transfection efficiency.

The test system of data set [6] is LNCaP cells. Briefly: Induction of Pim-1 expression by IL-6 (immunoblotting with monoclonal anti-Pim-1 antibody). The following applies: serum starved LNCaP cells; 25 ngml IL-6, 24 hour, 37 degrees. From the text:
FIG. 1A: Induction of Pim-1 expression by IL-6 in LNCaP cells. FIG. 1B: The effects of neutralizing antibody against IL-6 on the protein level of Pim-1 in PC3 cells. FIG. 1C: Expression of the two isoforms of Pim-1 by the EST clones in transfected LNCaP, 22Rv1 and PC3 cells FIG. 1D: The N-terminal unique sequence in human 44 kD Pim-1. Part of the sequence of the 5′ end of Pim-1 cDNA in the EST clones is shown. The putative alternative translation initiation site CUG and the start codon AUG are in boldface. FIG. 1E: Alignment of the unique N-terminal sequence in the 44 kD Pim-1 from human and mouse origins. Proline-rich motifs are underlined and bold. The translation initiation sites of the two isoforms are shown by arrows.
Induction of Pim-1 expression by IL-6 was assessed in serum starved LNCaP cells that were treated with 25 ngml IL-6 for 24 hour at 37 degrees. The level of Pim-1 protein was examined by immunoblotting with a monoclonal anti-Pim-1 antibody (Top). The same blot was then probed with anti-actin to monitor the sample loading (Bottom). […] One embodiment of the present invention is directed to the isolated human 44 kD isoform identified by SEQ ID NO. 4 or a functional equivalent or variant thereof and its use in screening assays. We are the first to isolate and describe the gene for the 44 kD isoforms identified in SEQ ID NO. […]
On the technique in general: In western blotting, separated proteins are transferred to a membrane and probed.

Like-named read-outs stand apart in the source and are kept apart here. Bounds are passed on as bounds.

For “5′ GCAGGACAGUGCUUGAUAC 3′ (lentivirus encoded, further chemistry not given here; listed as Homo sapiens) [siRNA, 1, lenti-virus encoded]”, in data set [1], the “sensitivity to apoptosis induced by chemotherapeutic agents” value was “sensitized”. In addition, the BCRP-mediated drug resistance result in data set [2] is reported as “inhibited BCRP-mediated drug resistance”. Further, the “BCRP-mediated resistance to mitoxantrone and topotecan” value in data set [3] is recorded as “able to reduce or compromise BCRP-mediated resistance”. Also, the “phosphorylation of BCRP” value in data set [4] is on record as “significantly reduced”.

Take `COc1cccc2c1C(=O)c1c(O)c3c(c(O)c1C2=O)C[C@@](O)(C(=O)CO)C[C@@H]3O[C@H]1C[C@H](N)[C@H](O)[C@H](C)O1` [doxorubicin]: the viability at 0.1 µg/mL in data set [5] (20 h) is about 50%; in data set [5] (40 h), over 70%. Besides, the apoptotic cells detected result in data set [5] (LNCaP cells expressing Pim-1L, doxorubicin 0.1 ug/ml, 20 hours post-treatment) was “Virtually no apoptotic cells were detected”. The cells that survived in data set [5] (LNCaP cells expressing the empty vector or kinase-inactive Pim-1LKM, doxorubicin 0.1 ug/ml, 40 hour treatment) came to 20%. The cell survival entry in data set [5] (LNCaP cells over-expressing Pim-1S, doxorubicin 0.1 ug/ml, 20 h) is “about 80%”.

As to “IL-6: interleukin 6, cytokine used to induce Pim-1 expression”, in data set [6], the “expression of the 44 kD Pim-1 protein” value is “induced”.

The values above are taken from patent US20100048671A1, “INHIBITION OF THE 44 KILODALTON ISOFORM OF PIM-1 KINASE RESTORES APOPTOSIS INDUCED BY CHEMOTHERAPEUTIC DRUGS IN CANCER CELLS” (priority 2005, published 2010).
